ChEMBL document CHEMBL5625228, “Design, synthesis, and bioactivity evaluation of novel amide/sulfonamide derivatives as potential anti-inflammatory agents against acute lung injury and ulcerative colitis” (Eur J Med Chem, 2023)
Active and inactive are the calls of the source. The calls are words filed in the database; no cut-off is given here.

Columns and labels:
[1] = system: Mus musculus; assay: Antiinflammatory activity against DSS-induced acute colitis C57BL/6 mouse model assessed as increase in colon length at 5 mg/kg, po pretreated with DSS for 7 days followed by compound addition for every day for 10 days; assay type: functional, organism-based; conditions: time 10.0 day
[2] = system: J774.A1; assay: Antiinflammatory activity against LPS-induced mouse J774.A1 cells assessed as reduction in p65 nuclear translocation at 20 uM incubated for 2 hrs by DAPI staining based immunofluorescence analysis; assay type: functional, cell-based
[3] = system: J774.A1; assay: Antiinflammatory activity against mouse J774.A1 cells assessed as inhibition of LPS-induced IL-6 production pretreated with compound for 30 mins followed by LPS induction and measured after 24 hrs by ELISA analysis; assay type: functional; conditions: time 1470 min; 24.5 h
[4] = system: J774.A1; assay: Antiinflammatory activity against mouse J774.A1 cells assessed as inhibition of LPS-induced TNF-alpha production pretreated with compound for 30 mins followed by LPS induction and measured after 24 hrs by ELISA analysis; assay type: functional; conditions: time 1470 min; 24.5 h
[5] = system: J774.A1; assay: Antiinflammatory activity against mouse J774.A1 cells assessed as inhibition of LPS-induced IL-6 release preincubated with compound for 30 mins followed by LPS-induction and measured after 24 hrs by ELISA analysis; assay type: functional, cell-based
[6] = system: J774.A1; assay: Antiinflammatory activity against mouse J774.A1 cells assessed as inhibition of LPS-induced TNF-alpha release preincubated with compound for 30 mins followed by LPS-induction and measured after 24 hrs by ELISA analysis; assay type: functional, cell-based
[7] = system: J774.A1; assay: Antiinflammatory activity against LPS-induced mouse J774.A1 cells assessed as downregulation of IL-6 mRNA level preincubated with compound for 30 mins followed by LPS-induction and measured after 6 hrs by qPCR analysis; assay type: functional, cell-based; conditions: time 390.0 min
[8] = system: J774.A1; assay: Antiinflammatory activity against LPS-induced mouse J774.A1 cells assessed as downregulation of TNF-alpha mRNA level preincubated with compound for 30 mins followed by LPS-induction and measured after 6 hrs by qPCR analysis; assay type: functional, cell-based; conditions: time 390.0 min
[9] = system: J774.A1; assay: Antiinflammatory activity against LPS-induced mouse J774.A1 cells assessed as increase in IkappaB-alpha level at 20 uM incubated for 2 hrs by Western blot analysis; assay type: functional, cell-based
[10] = system: J774.A1; assay: Antiinflammatory activity against LPS-induced mouse J774.A1 cells assessed as downregulation of p65 level at 20 uM incubated for 2 hrs by Western blot analysis; assay type: functional, cell-based
[11] = system: Mus musculus; assay: Antiinflammatory activity against LPS-induced acute lung injury C57BL/6 mouse model assessed as reduction in pulmonary edema by measuring lung wet to dry ratio at 20 mg/kg, IG pretreated with compound for 30 mins followed by LPS-induction and measured after 6 hrs; assay type: functional, organism-based; conditions: time 390.0 min
[12] = system: Mus musculus; assay: Antiinflammatory activity against LPS-induced acute lung injury C57BL/6 mouse model assessed as reduction in protein concentration in BALF at 20 mg/kg, IG preincubated with compound for 30 mins followed by LPS-induction and measured after 6 hrs; assay type: functional, organism-based; conditions: time 390.0 min
[13] = system: Mus musculus; assay: Antiinflammatory activity against LPS-induced acute lung injury C57BL/6 mouse model assessed as pulmonary congestion in lung at 20 mg/kg, IG preincubated with compound for 30 mins followed by LPS-induction and measured after 6 hrs by H and E staining based analysis; assay type: functional, organism-based; conditions: time 390.0 min
[14] = system: Mus musculus; assay: Antiinflammatory activity against LPS-induced acute lung injury C57BL/6 mouse model assessed as lung tissue destruction at 20 mg/kg, IG preincubated with compound for 30 mins followed by LPS-induction and measured after 6 hrs by H and E staining based analysis; assay type: functional, organism-based; conditions: time 390.0 min
[15] = system: Mus musculus; assay: Antiinflammatory activity against LPS-induced acute lung injury C57BL/6 mouse model assessed as suppression of TNF-alpha level in serum at 20 mg/kg, IG preincubated with compound for 30 mins followed by LPS-induction and measured after 6 hrs by ELISA analysis; assay type: functional, organism-based; conditions: time 390.0 min
[16] = system: Mus musculus; assay: Antiinflammatory activity against LPS-induced acute lung injury C57BL/6 mouse model assessed as suppression of IL-6 level in serum at 20 mg/kg, IG preincubated with compound for 30 mins followed by LPS-induction and measured after 6 hrs by ELISA analysis; assay type: functional, organism-based; conditions: time 390.0 min
[17] = system: Mus musculus; assay: Antiinflammatory activity against LPS-induced acute lung injury C57BL/6 mouse model assessed as decrease in TNF-alpha mRNA level in lung at 20 mg/kg, IG preincubated with compound for 30 mins followed by LPS-induction and measured after 6 hrs by qPCR analysis; assay type: functional, organism-based; conditions: time 390.0 min
[18] = system: Mus musculus; assay: Antiinflammatory activity against LPS-induced acute lung injury C57BL/6 mouse model assessed as decrease in IL-6 mRNA level in lung at 20 mg/kg, IG preincubated with compound for 30 mins followed by LPS-induction and measured after 6 hrs by qPCR analysis; assay type: functional, organism-based; conditions: time 390.0 min
[19] = system: Mus musculus; assay: Antiinflammatory activity against DSS-induced acute colitis C57BL/6 mouse model assessed as reduction in IL-6 level in serum at 5 mg/kg, po pretreated with DSS for 7 days followed by compound addition for every day for 10 days by ELISA analysis; assay type: functional, organism-based; conditions: time 10.0 day
[20] = system: Mus musculus; assay: Antiinflammatory activity against DSS-induced acute colitis C57BL/6 mouse model assessed as reduction in crypt necrosis in colon at 5 mg/kg, po pretreated with DSS for 7 days followed by compound addition for every day for 10 days by H and E staining based analysis; assay type: functional, organism-based; conditions: time 10.0 day
[21] = system: Mus musculus; assay: Antiinflammatory activity against DSS-induced acute colitis C57BL/6 mouse model assessed as reduction in inflammatory infiltration in colon at 5 mg/kg, po pretreated with DSS for 7 days followed by compound addition for every day for 10 days by H and E staining based analysis; assay type: functional, organism-based; conditions: time 10.0 day
[22] = Half life in Sprague-Dawley rat at 1 mg/kg, iv measured upto 24 hrs by LC-MS analysis; assay type: ADME, organism-based; conditions: in vivo
[23] = Half life in Sprague-Dawley rat at 10 mg/kg, po measured upto 24 hrs by LC-MS analysis; assay type: ADME, organism-based; conditions: in vivo
[24] = Tmax in Sprague-Dawley rat at 1 mg/kg, iv measured upto 24 hrs by LC-MS analysis; assay type: ADME, organism-based; conditions: in vivo
[25] = Tmax in Sprague-Dawley rat at 10 mg/kg, po measured upto 24 hrs by LC-MS analysis; assay type: ADME, organism-based; conditions: in vivo
[26] = Cmax in Sprague-Dawley rat at 10 mg/kg, po measured upto 24 hrs by LC-MS analysis; assay type: ADME, organism-based; conditions: in vivo
[27] = AUC (0 to t) in Sprague-Dawley rat at 1 mg/kg, iv measured upto 24 hrs by LC-MS analysis; assay type: ADME, organism-based; conditions: in vivo
[28] = AUC (0 to infinity) in Sprague-Dawley rat at 1 mg/kg, iv measured upto 24 hrs by LC-MS analysis; assay type: ADME, organism-based; conditions: in vivo
[29] = AUC (0 to infinity) in Sprague-Dawley rat at 10 mg/kg, po measured upto 24 hrs by LC-MS analysis; assay type: ADME, organism-based; conditions: in vivo
[30] = MRT (0 to t) in Sprague-Dawley rat at 1 mg/kg, iv measured upto 24 hrs by LC-MS analysis; assay type: ADME, organism-based; conditions: in vivo
[31] = MRT (0 to t) in Sprague-Dawley rat at 10 mg/kg, po measured upto 24 hrs by LC-MS analysis; assay type: ADME, organism-based; conditions: in vivo
[32] = Apparent volume of distribution in Sprague-Dawley rat at 1 mg/kg, iv measured upto 24 hrs by LC-MS analysis; assay type: ADME, organism-based; conditions: in vivo, read-out: Vz
[33] = Clearance in Sprague-Dawley rat at 1 mg/kg, iv measured upto 24 hrs by LC-MS analysis; assay type: ADME, organism-based; conditions: in vivo
[34] = Clearance in Sprague-Dawley rat at 10 mg/kg, po measured upto 24 hrs by LC-MS analysis; assay type: ADME, organism-based; conditions: in vivo
[35] = Oral bioavailability in Sprague-Dawley rat at 10 mg/kg measured upto 24 hrs by LC-MS analysis; assay type: ADME, organism-based; conditions: in vivo

IC50 [5]: 0.61 µM
IC50 [6]: 4.34 µM
half-life [22]: 1.8 h
half-life [23]: 7.1 h
Tmax [24]: 8.4 min
Tmax [25]: 2.8 h
Cmax [26]: 0.168 µg/mL
AUC(0-t) at 24 h [27]: 1.11 µg·h/mL
AUC(0-inf) [28]: 1.12 µg·h/mL
AUC [29]: 1.1835 µg·h/mL
MRT last at 24 h [30]: 1.1 h
MRT last at 24 h [31]: 7.2 h
Vd [32]: 2.3 L/kg
clearance [33]: 0.9 L/h/kg
clearance [34]: 9 L/h/kg
bioavailability [35]: 10.6%
Compound: O=[N+]([O-])c1ccc(N2CCN(c3ccc(S(=O)(=O)NCc4ccccn4)cc3[N+](=O)[O-])CC2)cc1
Activity [1]: Active
Activity [2]: Active
inhibition (INH) [3]: 85.92%
inhibition (INH) [4]: 70.09%
Activity [7]: Active
Activity [8]: Active
Activity [9]: Active
Activity [10]: Active
Activity [11]: Active
Activity [12]: Active
Activity [13]: Active
Activity [14]: Active
Activity [15]: Active
Activity [16]: Active
Activity [17]: Active
Activity [18]: Active
Activity [19]: Active
Activity [20]: Active
Activity [21]: Active
